Columns and labels:
[1] = system: human subjects; assay: Gastrointestinal tolerance study of iced cupcakes (Test Protocol 1; randomized, double-blind, crossover); type: in vivo; settings: after 24 hours; compared to SWEETENER 1
Description: In many embodiments, the sweetener compositions of the invention have improved gastrointestinal tolerance in humans. For example, the sweetener compositions of the invention have improved gastrointestinal tolerance as compared to maltitol. Gastrointestinal tolerance can be measured, for example, using a randomized, double blind, crossover, repeated measure design protocol, such described in Test Protocol 1 in the Example section of the application. In a representative test, a test food comprising a sweetener to be tested is consumed by human subjects, and the subjects are required to complete a gastrointestinal survey at various intervals, prior to and after, consuming the test food. For example, the human subject may complete the survey at 0 hours (i.e., just prior to consuming the test food), 2 hours, 6 hours, 12 hours, and 24 hours after consuming the test food. The food is then rated at the various time periods for gastrointestinal tolerance as evidenced by gastrointestinal effects such as gastrointestinal rumbling, abdominal cramping, gas/bloating, excessive flatulence, loose stools, and diarrhea. […]
The study used a randomized, double-blind, crossover, repeated measure design. […] Diarrhea was recorded as a yes/no response. […]

[2] = in vivo; cited from earlier work

Row | SMILES | abdominal cramping [1] | fraction absorbed in the small intestine and excreted unchanged in the urine [2]
1 | OC[C@@H](O)[C@@H](O[C@H]1O[C@H](CO)[C@@H](O)[C@H](O)[C@H]1O)[C@H](O)[C@@H](O)CO [COMP. SWEETENER A, Maltitol] | Significantly milder | –
2 | OC[C@@H](O)[C@@H](O)CO [Erythritol] | – | about 90%
